The structures appear in SMILES notation. pEC50: −log10 of the molar value.

The test system of this assay is Bmi-1. Nature of the assay: Sandwich ELISA Assay (Bmi-1 ELISA) in HT-1080 cells. Type of assay: cell-based. The method, then: Cell Seeding and Compound Treatment (Day 1):
HT-1080 cells were seeded at 8000 cells/well (50 μL) in 96-well tissue culture plates. After the cells became adherent (3-4 hours), 2× diluted stocks of test compounds in 50 μL DMEM containing 1% DMSO (final DMSO concentration was 0.5%) were added and the plates were incubated at 37° C. under 5% CO2 for 40-48 hours.
ELISA Plate First Antibody Preparation (Day 2):
The First Antibody (Millipore Mouse, monoclonal to mouse Bmi-1, clone F6, catalog #05-637) diluted to 2 μg/mL in PBS was added (100 μL) to each well of a Nunc MaxiSorp 96-well ELISA plate. The plate was covered with a plate seal and allowed to stand overnight.
Cell Lysate Preparation (Day 3):
Fresh 1× Lysis buffer was prepared on the day of the assay as follows: 1 mM EDTA, 150 mM NaCl, 0.5% Triton-X 100, 10 mM NaF, 20 mM B-Glycerophosphate, 1 mM DTT (in PBS, pH 7.2-7.4) and 1× HALT protease inhibitor cocktail (Pierce #78410).
The 1× Lysis Buffer (40 μL) was added to each well and the plate was shaken for 5-10 minutes on an orbital shaker to allow cell lysis, then diluent (1% BSA in PBS in 0.5% NP40) (100 μL) was added to each well.
A standard curve was prepared at the following Bmi-1 concentrations: 8000, 4000, 2000, 1000, 500, 250, 125, 0 pg/mL The Bmi-1 Recombinant Protein Standard (Novus Biologicals PCGF4 Recombinant Protein (P01), catalog #H00000648-P01) used to prepare the standard curve was stored at −80° C. On first thaw, the Bmi-1 Recombinant Protein Standard was diluted to […] in Blocking Buffer (1% BSA in PBS; BSA: Fisher Scientific Catalog #1600-100). Aliquots were taken and refrozen at −80° C. The aliquots may be kept at 4° C. and reused after first thaw, but only within 1-2 weeks. The Bmi-1 Recombinant Protein Standard contains a GST-fusion tag that appears around 70 Kda on Western Blot.
The prepared ELISA plate was washed 3× with Wash Buffer (0.05% Tween-20 in PBS). The final wash was removed from the plate and the plate was blotted dry. Blocking Buffer (300 μL) (1% BSA in PBS) was added to each well. The plate was covered with a plate seal and incubated at room temperature for 1 hour. The blocked plate was washed 3× with Wash Buffer, then the final wash was removed and the plate was blotted dry. The previously prepared samples and standards were added (100 μL/well) and the plate was covered with a plate seal and incubated at 4° C. overnight.
The prepared ELISA plate was removed from 4° C., incubated at room temperature for 30 minutes, then washed and blotted dry as previously described for Day 3. The Second Antibody (Cell Signaling Rabbit anti-Bmi-1, Cat #2830) diluted to 1:600 in Blocking Buffer was added (100 μL) to each well, except as needed for background control wells. The plate was covered with a plate seal and incubated for 1.5 hrs at room temperature.
The ELISA plate was washed and blotted dry as previously described. The Third Antibody (Cell Signaling HRP conjugated anti-rabbit IgG (CellSignaling, Cat #:7074) diluted to 1:300 in Blocking Buffer was added (100 μL) to each well, except as needed for background control wells. The plate was incubated for 1 hr at room temperature.
The plate was washed and blotted dry as previously described, then prepared TMB substrate (TMB substrate kit, Pierce catalog #34021) (prepared by mixing kit reagents 1:1) (100 μL) was added per well. The plate was incubated for 20-30 minutes at room temperature in the dark, then Stop Solution (2 M sulfuric acid in water) (50 μL) was added per well. The plates were read at OD450 (experimental) and OD570 (reference).
In general terms: In an ELISA, binding on a coated surface is turned into a signal by an enzyme label.
As for `FC(F)(F)c1ccc(Nc2ccnc(-c3c(C(F)(F)F)nc4ccc(Cl)cn34)n2)cc1` [Cpd 13, 2-[6-chloro-2-(trifluoromethyl)imidazo[1,2-a]pyridin-3-yl]-N-[4-(trifluoromethyl)phenyl]pyrimidin-4-amine], the pEC50 (usually −log10 of the EC50, conventionally taken in molar units) was 5.52 to 7.00.

`COc1ccc(Nc2nc(-n3c(C)nc4ccc(N)cc43)nc(N)c2F)cc1` [Cpd 256, 2-(6-amino-2-methyl-1H-benzimidazol-1-yl)-5-fluoro-N-(4-methoxyphenyl)pyrimidine-4,6-diamine] gave a negative-log EC50 (pEC50) of 7.00 to 8.00.

Consider `CCc1nc2ccccc2n1-c1nc(N)c(F)c(Nc2ccc(C(F)(F)F)cc2)n1` [Cpd 107, 2-(2-ethyl-1H-benzimidazol-1-yl)-5-fluoro-N-[4-(trifluoromethyl)phenyl]pyrimidine-4,6-diamine], for which the pEC50 was 7.00 to 8.00.

Turning to `Nc1nc(-c2c(CO)nn3ccc(F)cc23)nc(Nc2ccc(OC(F)F)cc2)c1F` [Cpd 181, [3-(4-amino-6-{[4-(difluoromethoxy)phenyl]amino}-5-fluoropyrimidin-2-yl)-5-fluoropyrazolo[1,5-a]pyridin-2-yl]methanol], the pEC50 is 7.00 to 8.00.

`Nc1nc(-n2c(C3CC3)nc3c(F)cccc32)nc(Nc2ccc(C(F)(F)F)cc2)c1F` [Cpd 140, 2-(2-cyclopropyl-4-fluoro-1H-benzimidazol-1-yl)-5-fluoro-N-[4-(trifluoromethyl]phenyl]pyrimidine-4,6-diamine] had a pEC50 of 7.00 to 8.00.

The compound `Cc1ccc(Nc2nc(-n3c(C)nc4ccccc43)nc(N)c2F)cc1` [Cpd 199, 5-fluoro-2-(2-methyl-1H-benzimidazol-1-yl)-N-(4-methylphenyl)pyrimidine-4,6-diamine] showed a pEC50 of 8.00 to 9.00.

On to `Cc1nc2ccc(C(F)(F)F)cn2c1-c1nccc(Nc2ccc(C(F)(F)F)cc2)n1` [Cpd 18, 2-[2-methyl-6-(trifluoromethyl)imidazo[1,2-a]pyridin-3-yl]-N-[4-(trifluoromethyl)phenyl]pyrimidin-4-amine], for which the pEC50 is 5.52 to 7.00.

`CCc1nc2ccccc2n1-c1nc(N)c(F)c(Nc2ccc(OC(F)(F)F)cc2)n1` [Cpd 272, 2-(2-ethyl-1H-benzimidazol-1-yl)-5-fluoro-N-[4-(trifluoromethoxy)phenyl]pyrimidine-4,6-diamine] showed a pEC50 of 7.00 to 8.00.

With `CCc1nc2ccccc2n1-c1nc(N)c(F)c(Nc2ccc(OC)cc2)n1` [Cpd 271, 2-(2-ethyl-1H-benzimidazol-1-yl)-5-fluoro-N-(4-methoxyphenyl)pyrimidine-4,6-diamine], the pEC50 was 8.00 to 9.00.

Consider `CCOc1ccc(Nc2ccnc(-c3c(C(F)(F)F)nc4ccccn34)n2)cc1` [Cpd 37, N-(4-ethoxyphenyl)-2-[2-(trifluoromethyl)imidazo[1,2-a]pyridin-3-yl]pyrimidin-4-amine], for which the pEC50 is 7.00 to 8.00.

The compound `Cc1nc2cc(F)c(F)cc2n1-c1nc(N)c(F)c(Nc2ccc(OC(F)F)c(F)c2)n1` [Cpd 126, N-[4-(difluoromethoxy)-3-fluorophenyl]-2-(5,6-difluoro-2-methyl-1H-benzimidazol-1-yl)-5-fluoropyrimidine-4,6-diamine] gave a pEC50 of 7.00 to 8.00.

`Cc1ccc(Nc2nc(-n3c(C)nc4ccc(C#N)cc43)nc(N)c2F)cc1` [Cpd 224]: the pEC50 is 7.00 to 8.00.

`CCc1nc2ccc(F)cc2n1-c1nc(N)c(F)c(Nc2ccc(OC(F)F)cc2)n1` [Cpd 165, N-[4-(difluoromethoxy)phenyl]-2-(2-ethyl-6-fluoro-1H-benzimidazol-1-yl)-5-fluoropyrimidine-4,6-diamine] showed a pEC50 of 8.00 to 9.00.

Consider `CCc1nc2c(F)cc(F)cc2n1-c1nc(N)c(F)c(Nc2ccc(C(F)(F)F)cc2)n1` [Cpd 129, 2-(2-ethyl-4,6-difluoro-1H-benzimidazol-1-yl)-5-fluoro-N-[4-(trifluoromethyl)phenyl]pyrimidine-4,6-diamine], for which the pEC50 was 7.00 to 8.00.

Regarding `FC(F)(F)c1nc2ccccn2c1-c1nccc(Nc2ccc(-n3cccn3)cc2)n1` [Cpd 39, N-[4-(1H-pyrazol-1-yl)phenyl]-2-[2-(trifluoromethyl)imidazo[1,2-a]pyridin-3-yl]pyrimidin-4-amine], the pEC50 is 5.52 to 7.00.

For the compound `Fc1ccc2nc(-c3ccccc3)c(-c3nccc(Nc4ccc(Br)cc4)n3)n2c1` [Cpd 26, N-(4-bromophenyl)-2-(6-fluoro-2-phenylimidazo[1,2-a]pyridin-3-yl)pyrimidin-4-amine], the negative-log EC50 (pEC50) is 5.52 to 7.00.

As to `Cc1nn2ccccc2c1-c1nc(N)c(F)c(Nc2ccc(C(F)(F)F)cc2)n1` [Cpd 177, 5-fluoro-2-(2-methylpyrazolo[1,5-a]pyridin-3-yl)-N-[4-(trifluoromethyl)phenyl]pyrimidine-4,6-diamine], the pEC50 was 5.52 to 7.00.

As to `Cc1nn2ccccc2c1-c1nc(N)cc(Nc2ccc(C(F)(F)F)cc2)n1` [Cpd 154, 2-(2-methylpyrazolo[1,5-a]pyridin-3-yl)-N-[4-(trifluoromethyl]phenyl]pyrimidine-4,6-diamine], the negative-log EC50 (pEC50) is 5.52 to 7.00.

`FC(F)Oc1ccc(Nc2ccnc(-c3c(C(F)(F)F)nc4ccccn34)n2)cc1` [Cpd 11, N-[4-(difluoromethoxy)phenyl]-2-[2-(trifluoromethyl)imidazo[1,2-a]pyridin-3-yl]pyrimidin-4-amine] gave a pEC50 of 5.52 to 7.00.

As for `COCc1nc2ccccc2n1-c1nc(N)c(F)c(Nc2ccc(C)cc2)n1` [Cpd 217, 5-fluoro-2-[2-(methoxymethyl)-1H-benzimidazol-1-yl]-N-(4-methylphenyl)pyrimidine-4,6-diamine], the pEC50 is 7.00 to 8.00.

Consider `Cc1ccc(Nc2nc(-n3c(C)nc4cc(F)ccc43)nc(N)c2F)cc1` [Cpd 281, 5-fluoro-2-(5-fluoro-2-methyl-1H-benzimidazol-1-yl)-N-(4-methylphenyl)pyrimidine-4,6-diamine], for which the pEC50 is 8.00 to 9.00.

The compound `Cc1ccc(Nc2cc(N)nc(-n3c(C)nc4ccccc43)n2)cc1` [Cpd 196, 2-(2-methyl-1H-benzimidazol-1-yl)-N-(4-methylphenyl)pyrimidine-4,6-diamine] had a pEC50 of 8.00 to 9.00.

For `Cc1nc2ccc(F)cn2c1-c1nc(N)cc(Nc2ccc(C(F)(F)F)cc2)n1` [Cpd 68, 2-(6-fluoro-2-methylimidazo[1,2-a]pyridin-3-yl)-N-[4-(trifluoromethyl)phenyl]pyrimidine-4,6-diamine], the pEC50 is 7.00 to 8.00.

Compound `Nc1cc(Nc2ccc(OC(F)F)cc2)nc(-c2c(C(F)(F)F)nc3ccccn23)n1` [Cpd 65, N-[4-(difluoromethoxy)phenyl]-2-[2-(trifluoromethyl)imidazo[1,2-a]pyridin-3-yl]pyrimidine-4,6-diamine] showed a pEC50 of 7.00 to 8.00.

For `FC(F)Oc1ccc(Nc2ccnc(-c3c(C(F)(F)F)nc4cnccn34)n2)cc1` [Cpd 53, N-[4-(difluoromethoxy)phenyl]-2-[2-(trifluoromethyl)imidazo[1,2-a]pyrazin-3-yl]pyrimidin-4-amine], the pEC50 is 5.52 to 7.00.

Compound `CCc1nc2ccccc2n1-c1nc(N)c(F)c(Nc2ccc(Cl)c(F)c2)n1` [Cpd 275, N-(4-chloro-3-fluorophenyl)-2-(2-ethyl-1H-benzimidazol-1-yl)-5-fluoropyrimidine-4,6-diamine] had a pEC50 of 7.00 to 8.00.

Compound `Cc1nc2ccc(C(F)(F)F)cn2c1-c1nccc(Nc2ccc(Br)cc2)n1` [Cpd 19, N-(4-bromophenyl)-2-[2-methyl-6-(trifluoromethyl)imidazo[1,2-a]pyridin-3-yl]pyrimidin-4-amine] had a pEC50 of 5.52 to 7.00.

Turning to `COc1ccc(Nc2ccnc(-c3c(C(F)(F)F)n(C)c4ccc(Cl)cc34)n2)cc1` [Cpd 23, 2-[5-chloro-1-methyl-2-(trifluoromethyl)-1H-indol-3-yl]-N-(4-methoxyphenyl)pyrimidin-4-amine], the pEC50 is 5.52 to 7.00.
